Patent US6528525B1, “Amidocarboxylic acid derivatives” (Sankyo Company, Limited, priority 1998, dated 2003)

system: hyperglycemic male KK mice; test: Action in depressing blood glucose (Method 1); assay type: in vivo; settings: Mus musculus, po, 72 h, compound admixed with powder feed at 0.01% (ca. 10 mg/kg/day) for three days, plasma glucose vs control group, read-out: Rate of hypoglycemic activity (%) (blood glucose depression rate)
Procedure: Action in Depressing Blood Glucose (Method 1)
Each compound, admixed with powder feed F-2 (Funabashi Farm) was administered to hyperglycemic male KK mice each having a body weight of 40 g or more at a rate of 0.01% (ca. 10 mg/kg/day) for three days. Meanwhile, mice of a control group were fed with the powder feed only. Then, a blood sample was collected from the caudal vein of each mouse under no anesthesia and centrifuged. The blood glucose in the plasma thus obtained was determined using Glucoloader F (Product of A & T Co., Ltd.).
The blood glucose depression rate were estimated from the following equation:
Blood glucose depression rate (%)=[(Blood glucose in Control group−Blood glucose in administered group)/Blood glucose in Control group]×100

SMILES | inhibition in vivo at 10 mg/kg/day
CCOC(Cc1ccc(OCCNC(=O)c2ccc(-c3ccccn3)cc2)cc1)C(=O)O (centres unmarked) [Example 2, Sodium 2-ethoxy-3-[4-[2-(4-pyridine-2-ylbenzoylamino)ethoxy]phenyl]propionate] | 43%
O=C(NCCOc1ccc(CC(CCCc2ccccc2)C(=O)O)cc1)c1ccc(-c2ccccn2)cc1 (centres unmarked) [Example 4, 2-(3-phenylpropyl)-3-[4-[2-(4-pyridine-2-ylbenzoylamino)ethoxy]phenyl]propionic acid] | 15%
CC(C)c1ccc(OC(Cc2ccc(OCCNC(=O)c3ccc(-c4ccccn4)cc3)cc2)C(=O)O)cc1 (centres unmarked) [Example 10, 2-(4-isopropylphenoxy)-3-[4-[2-(4-pyridine-2-ylbenzoylamino)ethoxy]phenyl]propionic acid] | 64%
CCCCC(Cc1ccc(OCCNC(=O)c2ccc(-c3ccccn3)cc2)cc1)C(=O)O (centres unmarked) [Example 12, 2-butyl-3-[4-[2-(4-pyridine-2-ylbenzoylamino)ethoxy]phenyl]propionic acid] | 42%
CC(Cc1ccc(OCCNC(=O)c2ccc(-c3ccccn3)cc2)cc1)(Oc1ccccc1)C(=O)O (centres unmarked) [Example 16, 2-Methyl-2-phenoxy-3-[4-[2-(4-pyridine-2-ylbenzoylamino)ethoxy]phenyl]propionic acid] | 64%
CC(C)c1ccc(OC(C)(Cc2ccc(OCCNC(=O)c3ccc(-c4ccccn4)cc3)cc2)C(=O)O)cc1 (centres unmarked) [Example 18, 2-(4-Isopropylphenoxy)-2-methyl-3-[4-[2-(4-pyridine-2-ylbenzoylamino)ethoxy]phenyl]propionic acid] | 68%
CCCCC(Cc1ccc(OCCNC(=O)c2ccc(-c3ccccc3)cc2)cc1)C(=O)O (centres unmarked) [Example 22, 3-[4-[2-(Biphenyl-4-carbonylamino)ethoxy]phenyl]-2-butylpropionic acid] | 17%
CCCCC(Cc1ccc(OCCNC(=O)c2ccc(-c3ccc(C=O)cc3)cc2)cc1)C(=O)O (centres unmarked) [Example 27, 2-Butyl-3-[4-[2-(4′-formylbiphenyl-4-carbonylamino)ethoxy]phenyl]propionic acid] | 35%
CCCCC(Cc1ccc(OCCNC(=O)c2ccc(-c3ccc(CN(C)C)cc3)cc2)cc1)C(=O)O (centres unmarked) [Example 29, 2-Butyl-3-[4-[2-(4′-dimethylaminomethylbiphenyl-4-carbonyl-amino)ethoxy]phenyl]propionic acid] | 20%
CCCCC(Cc1ccc(OCCNC(=O)c2ccc(-c3ccc(C(=O)O)cc3)cc2)cc1)C(=O)O (centres unmarked) [Example 30, 2-Butyl-3-[4-[2-(4′-carboxybiphenyl-4-carbonylamino)ethoxy]phenyl]propionic acid] | 18%
CCCCC(Cc1ccc(OCCNC(=O)c2ccc(-c3cccc(OC)c3)cc2)cc1)C(=O)O (centres unmarked) [Example 32, 2-Butyl-3-[4-[2-(3′-methoxybiphenyl-4-carbonylamino)ethoxy]phenyl]propionic acid] | 21%
CCCCC(Cc1ccc(OCCNC(=O)c2ccc(-c3cccc(O)c3)cc2)cc1)C(=O)O (centres unmarked) [Example 34, 2-Butyl-3-[4-[2-(3′-hydroxybiphenyl-4-carbonylamino)ethoxy]phenyl]propionic acid] | 22%
CCCCC(Cc1ccc(OCCNC(=O)c2ccc(-c3ccccc3OC)cc2)cc1)C(=O)O (centres unmarked) [Example 43, 2-Butyl-3-[4-[2-(2′-methoxybiphenyl-4-carbonylamino)ethoxy]phenyl]propionic acid] | 20%
CCCCC(Cc1ccc(OCCNC(=O)c2ccc(-c3cc(C)c(O)c(C)c3)cc2)cc1)C(=O)O (centres unmarked) [Example 48, Sodium 2-butyl-3-[4-[2-(4′-hydroxy-3′, 5′-dimethylbiphenyl-4-carbonylamino)ethoxy]phenyl]propionate] | 37%
CCCCC(Cc1ccc(OCCNC(=O)c2ccc(OC)nc2)cc1)C(=O)O (centres unmarked) [Example 52, 2-Butyl-3-[4-[2-(2-methoxypyridine-5-carbonylamino)ethoxy]phenyl]propionic acid] | 20%
CCCCC(Cc1ccc(OCCCNC(=O)c2ccc(-c3ccccn3)cc2)cc1)C(=O)O (centres unmarked) [Example 70, 2-Butyl-3-[4-[3-(4-pyridine-2-ylbenzoylamino)propoxy]phenyl]propionic acid] | 23%
CCCC(Cc1ccc(OCCNC(=O)c2ccc(-c3ccccn3)cc2)cc1)C(=O)O (centres unmarked) [Example 74, 2-Propyl-3-[4-[2-(4-pyridine-2-ylbenzoylamino)ethoxy]phenyl]propionic acid] | 60%
O=C(NCCOc1ccc(CC(Oc2ccccc2)C(=O)O)cc1)c1ccc(-c2ccccc2)cc1 (centres unmarked) [Example 76, 3-[4-[2-(Biphenyl-4-carbonylamino)ethoxy]phenyl]-2-phenoxypropionic acid] | 50%
O=C(NCCOc1ccc(CC(Oc2ccccc2)C(=O)O)cc1)c1ccc(-c2ccc(F)cc2)cc1 (centres unmarked) [Example 78, 3-[4-[2-(4′-Fluorobiphenyl-4-carbonylamino)ethoxy]phenyl]-2-phenoxypropionic acid] | 53%
O=C(NCCOc1ccc(CC(Oc2ccccc2)C(=O)O)cc1)c1ccc(-c2ccc(Cl)cc2)cc1 (centres unmarked) [Example 80, 3-[4-[2-(4′-Chlorobiphenyl-4-carbonylamino)ethoxy]phenyl]-2-phenoxypropionic acid] | 50%
O=C(NCCOc1ccc(CC(Oc2ccccc2)C(=O)O)cc1)c1ccc(-c2ccc(C(F)(F)F)cc2)cc1 (centres unmarked) [Example 82, 3-[4-[2-(4′-Trifluoromethylbiphenyl-4-carbonylamino)ethoxy]phenyl]-2-phenoxypropionic acid] | 32%
CC(C)c1ccc(OC(Cc2ccc(OCCNC(=O)c3ccc(-c4ccccc4)nc3)cc2)C(=O)O)cc1 (centres unmarked) [Example 97, 2-(4-Isopropylphenoxy)-3-[4-[2-(2-phenylpyridine-5-carbonylamino)ethoxy]phenyl]propionic acid] | 66%
COc1ccc(-c2ccc(C(=O)NCCOc3ccc(CC(Oc4ccc(C(C)C)cc4)C(=O)O)cc3)cn2)cc1 (centres unmarked) [Example 99, 2-(4-Isopropylphenoxy)-3-[4-[2-[2-(4-methoxyphenyl)pyridine-5-carbonylamino]ethoxy]phenyl]propionic acid] | 57%
CC(C)c1ccc(OC(Cc2ccc(OCCNC(=O)c3ccc(-c4ccc(F)cc4)nc3)cc2)C(=O)O)cc1 (centres unmarked) [Example 101, 3-[4-[2-[2-(4-Fluorophenyl)pyridine-5-carbonylamino]ethoxy]phenyl]-2-(4-isopropylphenoxy)propionic acid] | 51%

same assay, conditions: compound admixed with powder feed at 0.01% (ca. 10 mg/kg/day) for three days, plasma glucose vs control group

SMILES | Rate of hypoglycemic activity (%) (blood glucose depression rate)
O=C(NCCOc1ccc(CC(Oc2ccccc2)C(=O)O)cc1)c1ccc(-c2ccccn2)cc1 (centres unmarked) [Example 8, 2-Phenoxy-3-[4-[2-(4-pyridine-2-ylbenzoylamino)ethoxy]phenyl]propioric acid] | 22%
CCCCC(Cc1ccc(OCCNC(=O)c2ccc(N(CC)CC)cc2)cc1)C(=O)O (centres unmarked) [Example 62, 2-Butyl-3-[4-[2-(4-N,N-dietylaminobenzoylamino)ethoxy]phenyl]propionic acid] | 16%
